The values that follow come from the supplement of paper PMC11061612.

One test relates to DSH1 (Bladder Carcinoma). In words: combination Emax (second highest fraction inhibited in the dose matrix, 72 h); higher = more inhibition; extreme values may be limits of the assay. In outline: (§1)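 After 24 hours at 37°C and 5% CO2 in 1536-well plates, cells in DMEM/F12 or RPMI plus 10% FBS received two-drug dose matrices for 72 hours. Viability came from CellTiter-Glo 2.0 luminescence and was scaled as inhibition, anchored at 0 by vehicle wells and at 1 by blank wells. Combination Emax is taken as the second-highest inhibition in the matrix, and Bliss excess as the observed combination effect less EA + EB − EA·EB, with EA and EB the single-agent effects.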

Test [1] deals with LS-513 (Colorectal Carcinoma). Described as above. In short, it runs like this:
as §1

In test [2] the test system is TE-5 (Esophageal Squamous Cell Carcinoma). The description is as above. In outline:
as §1

Test [3] concerns NALM-6 (B-Lymphoblastic Leukemia). Described as above. In outline:
as §1

Test [4] has as its system SW1990 (Pancreatic Carcinoma). The description is as above. In outline: as §1
Test [5] deals with COR-L95 (Small Cell Lung Carcinoma). The test is described as above. In short, it runs like this: as §1
For test [6], the system named is HT-29 (Colorectal Carcinoma). The description is as above. In outline: as §1
The subject of test [7] is MDA-MB-231 (Breast Carcinoma). In words: Bliss excess, mean over the matrix (fraction); higher = more synergy. In outline: as §1
Test [8] has as its system OCI-AML2 (Acute Myeloid Leukemia). Described as above. In short, it runs like this:
as §1

The next test deals with NCI-H2595 (Mesothelioma). Described as above. In short, it runs like this:
as §1

Test [9] has as its system G-292-Clone-A141B1 (Osteosarcoma). The description is as above. In outline: as §1
The next test deals with ES7 (Ewing's Sarcoma). The test is described as above. In short, it runs like this: as §1
Test [10] deals with KATOIII (Gastric Carcinoma). Described as above. In outline:
as §1

For test [11], the system named is KARPAS-1106P (B-Cell Non-Hodgkin's Lymphoma). The test is described as above. In outline: as §1
Test [12] deals with NALM-6 (B-Lymphoblastic Leukemia). The description is as above. In short, it runs like this:
as §1

Test [13] concerns U-266 (Plasma Cell Myeloma). The description is as above. In outline:
as §1

Test [14] relates to SW1990 (Pancreatic Carcinoma). The description is as above. In short, it runs like this:
as §1

For a further test, the system named is SK-N-FI (Neuroblastoma). The test is described as above. In outline: as §1
Test [15] relates to IHH-4 (Thyroid Gland Carcinoma). Described as above. In short, it runs like this: as §1
Test [16] deals with MFH-ino (Other Solid Carcinomas). The test is described as above. In outline:
as §1

With `C[C@@H](Nc1cc(F)cc(F)c1)c1cc(C(=O)N(C)C)cc2c(=O)cc(N3CCOCC3)oc12` [AZD8186] + CC(=O)c1c(C)c2cnc(Nc3ccc(N4CCNCC4)cn3)nc2n(C2CCCC2)c1=O [Palbociclib] (first compound max 10 µM, 7x7, partner max 10 µM), the “combination Emax” value with DSH1 (Bladder Carcinoma) is 0.471; in test [1] it was 0.584; in test [2], 0.394; in test [3] it was 0.833; in test [4], 0.267; in test [5], 0.273. The “combination Emax” value in [6] is 0.562. Also, the Bliss excess in test [7] was 0.0305; in test [8], 0.132; in the test with NCI-H2595 (Mesothelioma), -0.0917; in test [9], -0.0001; in the test on ES7 (Ewing's Sarcoma), 0.115; in test [10], 0.0615. In addition, the Bliss excess in test [11] was -0.04; in [12] it was 0.0084; in [13] it was -0.0285; in test [14], -0.0062; with SK-N-FI (Neuroblastoma), 0.0089; in test [15], 0.125. Also, the Bliss excess in [16] was 0.0173.

For `O=C(c1cc(Cc2n[nH]c(=O)c3ccccc23)ccc1F)N1CCN(C(=O)C2CC2)CC1` [Olaparib] + CC1(C)CCC(CN2CCN(c3ccc(C(=O)NS(=O)(=O)c4ccc(NCC5CCOCC5)c([N+](=O)[O-])c4)c(Oc4cnc5[nH]ccc5c4)c3)CC2)=C(c2ccc(Cl)cc2)C1 [Venetoclax] (first compound max 10 µM, 7x7, partner max 1 µM), the “combination Emax” value came to 0.272 with DSH1 (Bladder Carcinoma); 0.18 in test [1]; 0.0752 in test [2]; 0.965 in [3]; 0.179 in [4]; 0.846 in test [5]. In test [6], the “combination Emax” value was determined as 0.115. Moreover, the Bliss excess in test [7] was 0.0001; in [8] it was 0.0964; in the test on NCI-H2595 (Mesothelioma), -0.0577; in test [9], -0.0566; with ES7 (Ewing's Sarcoma) it was 0.0282; in test [10], -0.0146. Besides, the Bliss excess in test [11] is -0.0169; in test [12] it was 0.104; in test [13] it was 0.0388; in test [14], -0.0509; with SK-N-FI (Neuroblastoma), -0.0527; in test [15], -0.0118. The Bliss excess in test [16] was -0.0622.

Take `CC1(C)CCC(CN2CCN(c3ccc(C(=O)NS(=O)(=O)c4ccc(NCC5CCOCC5)c([N+](=O)[O-])c4)c(Oc4cnc5[nH]ccc5c4)c3)CC2)=C(c2ccc(Cl)cc2)C1` [Venetoclax] + CS(=O)(=O)CCNCc1ccc(-c2ccc3ncnc(Nc4ccc(OCc5cccc(F)c5)c(Cl)c4)c3c2)o1 [Lapatinib] (first compound max 1 µM, 7x7, partner max 10 µM): the “combination Emax” value was 0.747 in the test on DSH1 (Bladder Carcinoma); 0.615 in test [1]; 0.218 in test [2]; 0.911 in test [3]; 0.174 in test [4]; 0.677 in [5]. Also, in [6], the “combination Emax” value turned out to be 0.731. In addition, the Bliss excess in test [7] is -0.034; in test [8], 0.0327; in the test on NCI-H2595 (Mesothelioma), -0.0574; in [9], -0.045; in the test on ES7 (Ewing's Sarcoma) it was 0.0086; in test [10] it was -0.0386. The Bliss excess was -0.0183 in [11]; 0.0563 in test [12]; -0.0555 in test [13]; -0.0384 in [14]; -0.0126 with SK-N-FI (Neuroblastoma); -0.0082 in test [15]. Moreover, in [16], the Bliss excess was -0.0699.

As for `O=C(c1cc(Cc2n[nH]c(=O)c3ccccc23)ccc1F)N1CCN(C(=O)C2CC2)CC1` [Olaparib] + COc1nnc2ccc(N3CCC(c4ccc(OCCN5CCN(C)C(=O)[C@H]5C)cc4)CC3)nn12 [AZD5153] (first compound max 10 µM, 7x7, partner max 1 µM), the “combination Emax” value with DSH1 (Bladder Carcinoma) came out at 0.647; in test [1], 0.591; in [2], 0.347; in test [3] it was 0.911; in test [4], 0.195; in test [5], 0.455. In test [6], the “combination Emax” value is 0.658. The Bliss excess in [7] is -0.0586; in test [8], -0.02; with NCI-H2595 (Mesothelioma), -0.12; in test [9], -0.0523; with ES7 (Ewing's Sarcoma), 0.0166; in [10], -0.0584. In addition, the Bliss excess is -0.0162 in test [11]; -0.0547 in test [12]; -0.0332 in test [13]; -0.0669 in test [14]; -0.0577 with SK-N-FI (Neuroblastoma); -0.0058 in [15]. Also, the Bliss excess in [16] is -0.07.

With `CS(=O)(=O)CCNCc1ccc(-c2ccc3ncnc(Nc4ccc(OCc5cccc(F)c5)c(Cl)c4)c3c2)o1` [Lapatinib] + NC1(c2ccc(-c3nc4ccn5c(=O)[nH]nc5c4cc3-c3ccccc3)cc2)CCC1 [MK-2206] (first compound max 10 µM, 7x7, partner max 10 µM), the “combination Emax” value in the test with DSH1 (Bladder Carcinoma) is 1; in test [1], 0.951; in test [2], 0.728; in test [3], 0.957; in test [4] it was 0.256; in test [5], 0.904. Moreover, in test [6], the “combination Emax” value came to 0.95. In addition, the Bliss excess was 0.0364 in test [7]; 0.0419 in test [8]; -0.0559 with NCI-H2595 (Mesothelioma); -0.0004 in test [9]; 0.036 in the test with ES7 (Ewing's Sarcoma); 0.0226 in test [10]. Moreover, the Bliss excess in test [11] is -0.0022; in test [12] it was -0.0044; in [13] it was -0.016; in [14], -0.003; in the test with SK-N-FI (Neuroblastoma), -0.0027; in test [15], 0.0087. Further, the Bliss excess in test [16] is -0.102.

Take `Cc1cc2ncnn2cc1Nc1ncc2c(n1)n(C1CCOCC1)c(=O)n2C` [AZD7648] + COc1cc([C@@H]2c3cc4c(cc3[C@@H](O[C@@H]3O[C@@H]5CO[C@@H](C)O[C@H]5[C@H](O)[C@H]3O)[C@H]3COC(=O)[C@H]23)OCO4)cc(OC)c1O [Etoposide] (first compound max 10 µM, 7x7, partner max 10 µM): the “combination Emax” value in the test with DSH1 (Bladder Carcinoma) stood at 0.844; in test [1], 0.662; in test [2], 0.668; in test [3], 1; in test [4], 0.337; in [5] it was 0.551. Also, the “combination Emax” value in [6] stood at 0.711. In addition, the Bliss excess in [7] was 0.0776; in [8] it was 0.175; in the test with NCI-H2595 (Mesothelioma) it was 0.0252; in test [9], 0.0701; with ES7 (Ewing's Sarcoma), 0.052; in test [10] it was -0.0224. In addition, the Bliss excess in test [11] was 0.0551; in test [12], 0.0869; in test [13], -0.0446; in [14], 0.0302; with SK-N-FI (Neuroblastoma) it was -0.0258; in test [15] it was 0.185. Also, in test [16], the Bliss excess was 0.0513.

As to `C[C@@H](Oc1cc(-c2cnn(C3CCNCC3)c2)cnc1N)c1c(Cl)ccc(F)c1Cl` [Crizotinib] + Cn1cnc2c(F)c(Nc3ccc(Br)cc3Cl)c(C(=O)NOCCO)cc21 [Selumetinib] (first compound max 10 µM, 7x7, partner max 10 µM), the “combination Emax” value with DSH1 (Bladder Carcinoma) is 0.229; in [1], 1; in [2], 0.186; in test [3], 0.905; in [4] it was 0.158; in test [5], 0.345. Also, the “combination Emax” value in test [6] was found to be 0.98. Moreover, the Bliss excess in [7] is 0.0323; in test [8] it was -0.0036; in the test on NCI-H2595 (Mesothelioma), -0.064; in [9] it was -0.0223; in the test with ES7 (Ewing's Sarcoma), -0.0134; in [10] it was -0.0081. For the same compound, the Bliss excess in [11] was 0.0052; in test [12] it was -0.0149; in test [13], -0.021; in test [14], -0.0626; in the test with SK-N-FI (Neuroblastoma), 0.0321; in test [15], -0.0246. Moreover, the Bliss excess in [16] was -0.026.
